Where two headings read alike, the source gives them in different places.
How the values were obtained:
Type in all cases: cell-based
[1] = system: brain tumor (CNS) cell lines; assay: HCC panel drug sensitivity test, brain tumor lines; settings: Homo sapiens
Procedure: (§1) For the assay of anticancer effect, used was an HCC panel comprising 39 cell lines in total: 7 cell lines of lung cancer (Lu), 6 cell lines of stomach cancer (St), 5 cell lines of colon cancer (Co), 5 cell lines of ovarian cancer (Ov), 6 cell lines of brain tumor (CNS), 5 cell lines of breast cancer (Br), 2 cell lines of renal cancer (Re), 2 cell lines of prostate cancer (xPg) and 1 cell line of melanoma (Me). These were used as one panel, and an in-vitro drug sensitivity test was performed by using the above three compounds to obtain sensitivity patterns against each compound (mean graphs mentioned below). Further, the mean graphs obtained as the results of the above sensitivity test were compared with data in a database.
(§2) Specifically, the drug sensitivity test was performed according to the following procedures. The above 39 cancer cell lines were seeded to a 96-well plate and incubated overnight. On the following day, sample solutions each containing each of the above three compounds (5 doses, usually from 10^-4 M to 10^-8 M with 1 log intervals, the highest concentration is referred to as “High Conc”) were added to the above 96-well plate and cultured for further 2 days. Subsequently, the cell proliferation was calorimetrically determined in the obtained plate by using Sulfo Rhodamine B.
(§3) In the data analysis, GI50 (concentration at which cell proliferation is inhibited to 50% of a control) is obtained as a parameter for data analysis using the cell number immediately before exposure of cells to the test compound (Time Zero) as a standard. Specifically, the obtained data is used for the following calculation:
(§4) 1) If a mean optical density value at each concentration (OD test) is larger than the OD value at Time Zero (Tz), i.e., OD test >Tz, then percent growth (PG %)=((OD test−Tz)/(OD control−Tz))×100, wherein 1 OD control is the OD value of control. On the contrary, if OD test <Tz, then PG %=((OD test−Tz)/Tz)×100. In this case, PG % is a negative value.
(§5) 2) The above PG % values obtained for each cell line are plotted against concentrations (logarithm) according to the organ cancer type. The concentration at the point where each curve intersects with a horizontal line, provided at PG 50%, corresponds to log GI50.

[2] = system: lung cancer (Lu) cell lines; assay: HCC panel drug sensitivity test, lung cancer lines; settings: Homo sapiens
Procedure: as §1, §2, §3, §4, §5

[3] = system: melanoma (Me) cell line; assay: HCC panel drug sensitivity test, melanoma line; settings: Homo sapiens; LOX-IMVI (Me)
Procedure: as §1
(§6) Specifically, the drug sensitivity test was performed according to the following procedures. The above 39 cancer cell lines were seeded to a 96-well plate and incubated overnight. On the following day, sample solutions each containing each of the above three compounds (5 doses, usually from 10^-4 M to 10^-8 M with 1 log intervals, the highest concentration is referred to as “High Conc”) were added to the above 96-well plate and cultured for further 2 days. Subsequently, the cell proliferation was calorimetrically determined in the obtained plate by using Sulfo Rhodamine B. […]

[4] = system: stomach cancer (St) cell lines; assay: HCC panel drug sensitivity test, stomach cancer lines; settings: Homo sapiens
Procedure: as §1, §2, §3, §4, §5

[5] = system: colon cancer (Co) cell lines; assay: HCC panel drug sensitivity test, colon cancer lines; settings: Homo sapiens
Procedure: as §1, §2, §3, §4, §5

[6] = system: breast cancer (Br) cell lines; assay: HCC panel drug sensitivity test, breast cancer lines; settings: Homo sapiens
Procedure: as §1, §2, §3, §4, §5

[7] = system: ovarian cancer (Ov) cell lines; assay: HCC panel drug sensitivity test, ovarian cancer lines; settings: Homo sapiens
Procedure: as §1, §2, §3, §4, §5

[8] = system: HCC panel comprising 39 cell lines; assay: HCC panel in-vitro drug sensitivity test (Sulfo Rhodamine B), anticancer effect on cultured human cancer cell lines; settings: for Delta / Range: HCC panel log GI50; for Delta: criterion ≧ 0.5; for Range: criterion ≧ 1.0; for evaluation as anticancer agent (criteria A-D: novelty, MG-MID, Delta/Range, COMPARE): HCC panel mean graph evaluation; for GI50: Homo sapiens
Procedure: The anticancer effect of each compound was determined by using the obtained concentration.
as §1, §2
The obtained data of the measurement results are shown as mean graphs. Mean graphs (also referred to as fingerprints) visually expresses effective concentration deviations of a sample substance against individual cancer cell lines so that the sensitivity of each cancer cell line against the sample can be recognized at a glance. The mean graph is also referred to as fingerprint because it represents a pattern unique to each drug.
as §3, §4, §5
3) Then, “mean graphs” are created. Mean log GI50 values are obtained for all of the assayed cell lines and referred to as mean graph midpoints (MG-MID). A difference between each of the mean values and the log GI50 value for each cell line is obtained (that is, GI50 for each cell line is represented as a logarithmic value of a multiple or an aliquot of the mean value). The resulting differences are depicted as bar charts extending a left or right side from the center line of mean log GI50 (scale 0) to obtain a mean graph. The higher differential sensitivity a cell line has, the longer the bar extends to the right. One scale corresponds to 1 log. The value of “Delta” provided at the bottom of the mean graph represents the difference between the value for the most sensitive cell line and the mean value. The value of “Range” provided below “Delta” represents the difference between the log GI50 values of the most sensitive cell line and the least sensitive one. […]

[9] = system: prostate cancer (xPg) cell lines; assay: HCC panel drug sensitivity test, prostate cancer lines; settings: Homo sapiens; DU-145 (xPg)
Procedure: as §1, §6

[10] = SF-268 (CNS), read-out: log GI50 (converted)
[11] = SF-539 (CNS), read-out: log GI50 (converted)
[12] = SNB-75 (CNS), read-out: log GI50 (converted)
[13] = DMS-114, DMS114 (Lu), read-out: log GI50 (converted)
[14] = DMS-273, DMS273 (Lu), read-out: log GI50 (converted)
[15] = A549 (Lu), read-out: log GI50 (converted)
[16] = NCI-H23 (Lu), read-out: log GI50 (converted)
[17] = NCI-H226 (Lu), read-out: log GI50 (converted)
[18] = NCI-H460 (Lu), read-out: log GI50 (converted)
[19] = NCI-H522 (Lu), read-out: log GI50 (converted)
[20] = OVCAR-3 (Ov), read-out: log GI50 (converted)
[21] = OVCAR-4 (Ov), read-out: log GI50 (converted)
[22] = OVCAR-5 (Ov), read-out: log GI50 (converted)
[23] = OVCAR-8 (Ov), read-out: log GI50 (converted)
[24] = 48 h, logarithmic values of molar concentration, for many cancer cell lines of the HCC panel, cultured 2 days, Sulfo Rhodamine B, read-out: log GI50 (concentration at which cell proliferation is inhibited to 50% of the control) (converted)
[25] = mean over HCC panel, criterion <−5, read-out: MG-MID (log GI50) (converted)

Row | Structure (SMILES) | GI50 [1, 10] [µM] | GI50 [1, 11] [µM] | GI50 [1, 12] [µM] | GI50 [2, 13] [µM] | GI50 [2, 14] [µM] | GI50 [2, 15] [µM] | GI50 [2, 16] [µM] | GI50 [2, 17] [µM] | GI50 [2, 18] [µM] | GI50 [2, 19] [µM] | GI50 [3] [µM] | GI50 ([4]; MKN-1, MKN1 (St)) [µM] | GI50 ([4]; MKN-7, MKN7 (St)) [µM] | GI50 ([4]; MKN-28, MKN28 (St)) [µM] | GI50 ([4]; MKN-45, MKN45 (St)) [µM] | GI50 ([4]; St-4 (St)) [µM] | GI50 ([5]; HCC 2998, HCC2998 (Co)) [µM] | Delta [8] | Range [8] | evaluation as anticancer agent (criteria A-D: novelty, MG-MID, Delta/Range, COMPARE) [8] | further results
1 | C(CCCNCCCCNCC1CC1)CCNCCCCNCC1CC1 [BCPM464, 1,16-bis(cyclopropylmethylamino)-5,12-diazahexadecane] | 87.1 | 3.16 | 3.31 | 4.37 | 4.37 | 2.82 | 3.55 | 7.24 | 9.77 | 1.82 | 6.31 | 7.24 | 4.17 | 4.68 | 6.46 | 6.46 | 63.1 | 1.19 | 2.05 | the most interesting | GI50 ([1]; U251 (CNS), read-out: log GI50 (converted)): 60.3 µM; GI50 ([5]; HCT-116 (Co)): 6.76 µM; GI50 ([5]; HT-29 (Co)): 23.4 µM; GI50 ([6]; HBC4, HBC-4 (Br)): 6.92 µM; GI50 ([6]; HBC5, HBC-5 (Br)): 0.891 µM; GI50 ([6]; MCF7, MCF-7 (Br)): 13.8 µM; GI50 ([6]; BSY-1 (Br)): 3.55 µM; GI50 [7, 20]: 3.02 µM; GI50 [7, 21]: 2.88 µM; GI50 [7, 22]: 4.37 µM; GI50 [7, 23]: 5.75 µM; GI50 [8, 24]: < 100 µM; GI50 [8, 25]: 13.8 µM
2 | C(CCCNCCCCNCC1CC1)CCCNCCCCNCC1CC1 [BCPM474] | 4.68 | 3.47 | 3.63 | 3.8 | 4.17 | 2.82 | 4.37 | 9.12 | 16.6 | 3.24 | 30.9 | 12 | 4.37 | 5.25 | 12 | 6.92 | 10.2 | 0.84 | 1.76 | the most interesting | GI50 ([1]; SF-295 (CNS), read-out: log GI50 (converted)): 8.71 µM; GI50 ([4]; MKN-74, MKN74 (St)): 47.9 µM; GI50 ([5]; KM12, KM-12 (Co)): 28.2 µM; GI50 ([5]; HCT-15 (Co)): 37.2 µM; GI50 ([5]; HCT-116 (Co)): 6.92 µM; GI50 ([5]; HT-29 (Co)): 8.71 µM; GI50 ([6]; HBC4, HBC-4 (Br)): 4.57 µM; GI50 ([6]; HBC5, HBC-5 (Br)): 2.24 µM; GI50 ([6]; MCF7, MCF-7 (Br)): 56.2 µM; GI50 ([6]; BSY-1 (Br)): 7.08 µM; GI50 [9]: 67.6 µM; GI50 [7, 20]: 1.66 µM; GI50 [7, 21]: 4.17 µM; GI50 [7, 22]: 5.37 µM; GI50 [7, 23]: 2.75 µM; GI50 ([7]; SK-OV-3 (Ov), read-out: log GI50 (converted)): 5.75 µM; GI50 [8, 24]: < 100 µM; GI50 [8, 25]: 11.5 µM
3 | CCNCCCCNCCCCCCCCNCCCCNCC [BET484, 1,18-bis(ethylamino)-5,14-diazaoctadecane] | – | – | – | – | – | – | – | – | – | – | – | – | – | – | – | – | – | 1.45 | 1.62 | the most interesting | GI50 ([1]; read-out: log GI50, SF-539 (CNS) (converted)): 7.94 µM; GI50 ([1]; read-out: log GI50, SNB-75 (CNS) (converted)): 12.9 µM; GI50 ([2]; A549, read-out: log GI50 (converted)): 16.2 µM; GI50 ([2]; DMS-273, read-out: log GI50 (converted)): 3.02 µM; GI50 ([7]; OVCAR-3, read-out: log GI50 (converted)): 20 µM; GI50 ([7]; OVCAR-4, read-out: log GI50 (converted)): 5.89 µM; GI50 ([7]; OVCAR-5, read-out: log GI50 (converted)): 72.4 µM; GI50 ([8]; 48 h, read-out: log GI50 (concentration at which cell proliferation is inhibited to 50% of the control) (converted)): < 100 µM; GI50 ([8]; read-out: MG-MID (log GI50) (converted)): 67.6 µM
